Test results published in US20250255977A1, “EPSILON-POLY-L-LYSINE-BASED DRUG CONJUGATE, INTERMEDIATE THEREOF, AND APPLICATION THEREOF” (SHANGHAI BEST-LINK BIOSCIENCE, LLC, priority 2021, published 2025).
Where two headings read alike, the source gives them in different places.

How the values were obtained:
[1] = BALB/C nude, mouse, in vivo, iv, 10 mg/kg
Experimental: Mice were killed at set time points. Plasma was taken after blood centrifugation. Tumor tissues were isolated, temporarily stored in dry ice and then transferred to −80° C. freezer for later use.
Tumor tissues were thawed, weighed and then added a certain amount of 50/50 methanol and water. The mixture was homogenized on the handheld homogenizer with ice bath, centrifuged at 4° C. 6000×g for 10 min, and the supernatant was collected.
30 μL of plasma or homogenized tumor supernatant were taken and added 200 μL of acetonitrile with internal standard (tolbutamide, 50 ng/mL). The mixture was vortexed for 5 min and centrifuged at 6000×g for 10 min. 75 μL of the supernatant was transferred to a 96-well plate pre-added with 75 μL of water and shaked at 500 rpm for 5 min. 2 μL of sample was injected for LC MS/MS analysis.
Column: ACQUITY UPLC BEH C18 (2.1×50 mm, 1.7 μm)
Phase A: 0.1% formic acid/water, Phase B: 0.1% formic acid/acetonitrile

HepG2 tumors = test: In vivo efficacy in HepG2 xenograft CDX mouse model; parameters: species or system BALB/C nude mice; conditions: Day 33
Experimental: Biological Assessment Example F: […] The tumor volume was calculated as: […] The evaluation criteria are as follows: […]

[2] = tested on: H69 small cell lung cancer; test: Efficacy on subcutaneous transplanted 1200 mm^3 H69 small cell lung cancer model; format: in vivo, BALB/C nude mice; conditions: topotecan MTD 2 mg/kg (free base) once a day for five days; 1200 mm^3 tumors
Source text: Biological Assessment Example I: Comparison of Efficacy of 101B00G and Topotecan on Subcutaneous Transplanted 1200 mm^3 H69 Small Cell Lung Cancer Model

SMILES | Plasma concentration of released drug, average value ([1]; 0.083 h) | Plasma concentration of released drug, average value ([1]; 0.5 h) | Plasma concentration of released drug, average value ([1]; 1 h) | Plasma concentration of released drug, average value ([1]; 3 h) | Plasma concentration of released drug, average value ([1]; 8 h) | TGI (%) / tumor inhibition rate (HepG2 tumors) [%] | Increase of tumor volume on Day 22 compared with the initial value [2] [%]
CCc1c2c(nc3ccc(OC(=O)N4CCC(N5CCCCC5)CC4)cc13)-c1cc3c(c(=O)n1C2)COC(=O)[C@]3(O)CC [irinotecan] | 865 | 385 | 407 | 172.6 | 27.7 | −49 | –
CC[C@@]1(O)C(=O)OCc2c1cc1n(c2=O)Cc2cc3c(CN(C)C)c(O)ccc3nc2-1 [topotecan] | – | – | – | – | – | – | 22
